Data taken from patent US20220289719A1, “HETEROCYCLIC COMPOUNDS AS MNK INHIBITORS” (NANJING INNOCARE PHARMA TECH CO., LTD., priority 2017, published 2022).
Structures can show the parent of a compound that is named as a salt.

Biological target: T1, Human recombinant full-length MNK1 protein (Homo sapiens, UniProt Q9BUB5)
T1 construct: Human recombinant full-length MNK1 protein; purchased Thermo PR9138A
Experiment: MNK1 inhibitory activity assay (ADP-Glo in vitro kinase assay)
Assay type: biochemical
Settings: 10 concentration points
Method: MNK1 Inhibitory Activity Assay: Evaluation of the effects of compounds of the invention on […] (MNK1) activity using in vitro kinase assays. The experimental methods are summarized as follows: The in vitro activity of MNK1 was determined by measuring the level of ADP produced in the kinase reaction using the ADP-Glo Kinase Assay Kit. The reaction buffer consisted of the following components: 50 mM HEPES, pH 7.5, 10 mM MgCl2, 1 mM EGTA, 0.01% Brij35. Human recombinant full-length MNK1 protein (Thermo, Cat. No. PR9138A) was diluted with a reaction buffer to a 3.13 ng/uL kinase solution. The substrate reaction solution consisted of a substrate diluted to 0.75 mg/ml in reaction buffer ([…], available from […] Domestic Company), 2250 uM ATP, the ADP-Glo reagent and kinase assay solution from Promega kit (Promega, V9102). […] If the compound IC50 value is very low, the initial concentration of the compound can be lowered. To a 384-well assay plate (Thermo, Cat. No. 264706) were added 1 uL of compound solution and 2 uL of MNK1 kinase solution. The mixture was mixed well and incubated for 30 minutes at room temperature; then 2 uL of substrate reaction solution was added, the reaction mixture was incubated for 120 minutes at room temperature. The reaction was terminated after an equal volume of 5uLADP-Glo solution was added, and the remaining ATP was completely consumed. After mixing for 60 minutes at room temperature, 10 ul of the kinase assay solution was added, and the mixture was uniformly mixed, and allowed to stand at room temperature for 40 minutes in the dark. The detection solution converts ADP into new ATP through coupled luciferase/luciferin, and ATP is converted into optical signal by Ultr-GloTM luciferase, which can be detected by Envision. The intensity of the light signal is proportional correlated with the amount of ADP produced in the kinase reaction, therefore, the activity of MNK1 kinase can be determined. In this experiment, the group without protein was used as a negative control (100% inhibition). The group with protein but without compounds was used as a positive control (0% inhibition).

T1 sequence (Q9BUB5 whole entry): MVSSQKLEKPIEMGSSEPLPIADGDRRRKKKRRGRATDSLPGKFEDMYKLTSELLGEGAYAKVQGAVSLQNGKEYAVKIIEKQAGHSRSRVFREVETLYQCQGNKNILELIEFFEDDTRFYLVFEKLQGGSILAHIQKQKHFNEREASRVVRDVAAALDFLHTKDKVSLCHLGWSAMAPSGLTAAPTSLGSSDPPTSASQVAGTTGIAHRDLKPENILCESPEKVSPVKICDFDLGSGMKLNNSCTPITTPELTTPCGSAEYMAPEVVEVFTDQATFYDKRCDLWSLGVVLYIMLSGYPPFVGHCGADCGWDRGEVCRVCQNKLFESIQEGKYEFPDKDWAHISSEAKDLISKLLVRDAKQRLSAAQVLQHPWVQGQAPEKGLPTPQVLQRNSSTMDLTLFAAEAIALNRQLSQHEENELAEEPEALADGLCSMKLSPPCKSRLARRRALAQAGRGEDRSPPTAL

COc1cn2nccc2cc1Nc1cc(NC(=O)C2CC2)ncn1 [Compound 63, N-(6-((6-Methoxypyrazolo[1,5-a]pyridin-5-yl)amino)pyrimidin-4-yl)cyclopropanecarboxamide]
IC50: 97.1 nM

COc1cc2[nH]ncc2cc1Nc1ncncc1-c1nc2cccc(N3CCN[C@@H](C)C3)c2n1C [Compound 64, 6-Methoxy-N-(4-{1-methyl-7-[(3S)-3-methylpiperazin-1-yl]-1H-benzimidazol-2-yl}pyrimidine-5-)-1H-indazol-5-amine]
IC50: 437 nM

COc1cc2[nH]ncc2cc1Nc1cc(-n2ccnc2)ncn1 [Compound 65, N-(6-(1H-Imidazol-1-yl)pyrimidin-4-yl)-6-methoxy-1H-indazol-5-amine formate]
IC50: 694 nM

COc1c(Nc2cc(N)ncn2)ccc2c1CNC2=O [Compound 66, 5-((6-Aminopyrimidin-4-yl)amino)-4-methoxyisoindolin-1-one hydrochloride]
IC50: 38.5 nM

COc1c(Nc2cc(Nc3ncccn3)ncn2)ccc2c1CNC2=O [Compound 69, 5-((6-(Pyrimidin-2-ylamino)pyrimidin-4-yl)amino)-4-methoxyisodihydroindol-1-one]
IC50: 27.3 nM

COc1c(Nc2cc(Nc3ccncn3)ncn2)ccc2c1CNC2=O [Compound 70, 5-((6-(Pyrimidin-4-ylamino)pyrimidin-4-yl)amino)-4-methoxyisodihydroindol-1-one]
IC50: 17 nM

COc1c(N)ncnc1Nc1ccc2c(c1OC)CNC2=O [Compound 71, 5-((6-Amino-5-methoxypyrimidin-4-yl)amino)-4-methoxyisoindolin-1-one]
IC50: 128 nM

COc1c(Nc2cc(NC(=O)C3CC3)ncn2)ccc2c1CN(C)C2=O [Compound 72, 5-((6-(Cyclopropionamido)pyrimidin-4-yl)amino)-4-methoxy-2-methylisodihydroindol-1-one]
IC50: 30.5 nM

COc1c(Nc2cc(NC(=O)C3CC3)ncn2)ccc2c1C(C)(C)N(C)C2=O [Compound 73, 5-((6-(Cyclopropionamido)pyrimidin-4-yl)amino)-4-methoxy-2,3,3-trimethylisoindole-1-one]
IC50: 188 nM

COc1cncnc1Nc1ccc2c(c1OC)CNC2=O [Compound 74, 5-((5-Methoxypyrimidin-4-yl)amino)-4-methoxyisodihydroindole-1-one]
IC50: 38.4 nM

COCCOc1cncnc1Nc1ccc2c(c1OC)CNC2=O [Compound 75, 5-((5-(2-Methoxyethoxy)pyrimidin-4-yl)amino)-4-methoxyisodihydroindole-1-one]
IC50: 34.4 nM

COc1c(Nc2ncncc2OCCN2CCOCC2)ccc2c1CNC2=O [Compound 76, 5-((5-(2-(4-morpholin)ethoxy)pyrimidin-4-yl)amino)-4-methoxyisodihydroindol-1-one formate]
IC50: 572 nM

COc1c(Nc2ncncc2OCCN(C)C)ccc2c1CNC2=O [Compound 77, 5-((5-(2-(Dimethylamino)ethoxy)pyrimidin-4-yl)amino)-4-methoxyisodihydroindole-1-one dicarboxylate]
IC50: 900 nM

COc1c(Nc2ncncc2OCCO)ccc2c1CNC2=O [Compound 78, 5-((5-(2-Hydroxyethoxy)pyrimidin-4-yl)amino)-4-methoxyisoindolin-1-one]
IC50: 19.7 nM

COc1c(Nc2ncnc3[nH]ccc23)ccc2c1CNC2=O [Compound 79, 5-((7H-Pyrrolo[2,3-d]pyrimidin-4-yl)amino)-4-methoxyisoindolin-1-one]
IC50: 20.9 nM

COc1c(Nc2ncnc3[nH]cnc23)ccc2c1CNC2=O [Compound 80, 5-((9H-Purin-6-yl)amino)-4-methoxyisoindolin-1-one]
IC50: 11.7 nM

COc1c(Nc2ncnc3[nH]ncc23)ccc2c1CNC2=O [Compound 81, 5-((1H-Pyrazolo[3,4-d]pyrimidin-4-yl)amino)-4-methoxyisoindolin-1-one]
IC50: 103 nM

CNc1cncnc1Nc1ccc2c(c1OC)CNC2=O [Compound 82, 5-((5-Methylaminopyrimidin-4-yl)amino)-4-methoxyisodihydroindole-1-one formate]
IC50: 154 nM

COc1c(Nc2cc(Nc3ncccc3Cl)ncn2)ccc2c1CNC2=O [Compound 83, 5-((6-((3-Chloropyridin-2-yl)amino)pyrimidin-4-yl)amino)-4-methoxyisoindolin-1-one]
IC50: 96.6 nM

COc1c(Nc2cc(Nc3ccc(Cl)cn3)ncn2)ccc2c1CNC2=O [Compound 85, 5-((6-((5-Chloropyridin-2-yl)amino)pyrimidin-4-yl)amino)-4-methoxyisoindolin-1-one]
IC50: 13.9 nM

COc1c(Nc2cc(Nc3cccc(Cl)n3)ncn2)ccc2c1CNC2=O [Compound 86, 5-((6-((6-Chloropyridin-2-yl)amino)pyrimidin-4-yl)amino)-4-methoxyisoindolin-1-one]
IC50: 18.5 nM

COc1c(Nc2cc(Nc3cc(Cl)ccn3)ncn2)ccc2c1CNC2=O [Compound 87, 5-((6-((4-Chloropyridin-2-yl)amino)pyrimidin-4-yl)amino)-4-methoxyisoindolin-1-one]
IC50: 19.1 nM
